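Test compounds were applied to cells in 96-well plates for 48 hours at 5 doses. The concentration for 50% growth inhibition is given as GI50.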 The source made the active and inactive calls. Rule as the data show it: active = GI50 up to about 1.1 µM and inactive = higher.
How the values were obtained:
Experiment in all cases: inhibition of tumour cell growth, NCI panel, 48 h
SF-539 = test system: SF-539
KM12 = test system: KM12
OVCAR-8 = test system: OVCAR-8
U-251 = test system: U-251
DMS-114 = test system: DMS-114
OVCAR-4 = test system: OVCAR-4
Malme-3M = test system: Malme-3M
HCT-15 = test system: HCT-15
SR = test system: SR
A498 = test system: A498
NCI-H460 = test system: NCI-H460
CAKI-1 = test system: CAKI-1
SW-620 = test system: SW-620
RPMI-8226 = test system: RPMI-8226
ACHN = test system: ACHN
TK-10 = test system: TK-10

Structure (SMILES)	GI50 (SF-539)	GI50 (KM12)	GI50 (OVCAR-8)	GI50 (U-251)	GI50 (DMS-114)	GI50 (OVCAR-4)	GI50 (Malme-3M)	GI50 (HCT-15) [µM]	GI50 (SR)	GI50 (A498)	GI50 (NCI-H460)	GI50 (CAKI-1)	GI50 (SW-620)	GI50 (RPMI-8226)	GI50 (ACHN)	GI50 (TK-10)
COc1cc(/C=N/N=C(\N)NO)cc(Cl)c1O	34.4 µM (inactive)	78 µM (inactive)	65.6 µM (inactive)	48.9 µM (inactive)	34.2 µM (inactive)	76.9 µM (inactive)	55.2 µM (inactive)	66.8	40.7 µM (inactive)	34.4 µM (inactive)	41.6 µM (inactive)	26.9 µM (inactive)	99.3 µM (inactive)	> 100 µM (inactive)	34.4 µM (inactive)	
C=C1CC(CC)(CCN2C(=O)c3ccccc3C2=O)OC1=O (centres undefined)	18.9 µM (inactive)	21 µM (inactive)	16.4 µM (inactive)	> 10 µM (inactive)	19.2 µM (inactive)	14.2 µM (inactive)	11.8 µM (inactive)	13.9	27.4 µM (inactive)	19.2 µM (inactive)	69.2 µM (inactive)	2.09 µM (inactive)	7.55 µM (inactive)	22.7 µM (inactive)	14.9 µM (inactive)	17.7 µM (inactive)
CN(CCO)c1nc2c(c(=O)[nH]1)CNCC2	> 100 µM (inactive)	> 100 µM (inactive)	> 100 µM (inactive)	> 100 µM (inactive)	> 100 µM (inactive)	> 100 µM (inactive)	> 100 µM (inactive)	> 100	> 100 µM (inactive)		> 100 µM (inactive)	> 100 µM (inactive)	> 100 µM (inactive)	> 100 µM (inactive)	> 100 µM (inactive)	> 100 µM (inactive)
O=C(CC1(O)C(=O)Nc2ccc([N+](=O)[O-])cc21)c1ccncc1 (centres undefined)	51.3 µM (inactive)	39 µM (inactive)	46.2 µM (inactive)	20.1 µM (inactive)	30.5 µM (inactive)	22.1 µM (inactive)	21.8 µM (inactive)	83.8		> 100 µM (inactive)	48.6 µM (inactive)		20.5 µM (inactive)	25.2 µM (inactive)	43.3 µM (inactive)	> 100 µM (inactive)
Cc1cc([N+](=O)[O-])ccc1NC(=O)C(=O)C(C(=O)c1ccccc1-c1ccccc1)C1OC(=O)c2ccccc21 (centres undefined)	9.02 µM (inactive)	15 µM (inactive)	20.8 µM (inactive)	12.5 µM (inactive)	13.1 µM (inactive)	26.2 µM (inactive)	13.1 µM (inactive)	15.1	16.4 µM (inactive)	> 10 µM (inactive)	17 µM (inactive)	23.8 µM (inactive)	18 µM (inactive)	24 µM (inactive)	31.3 µM (inactive)	17.8 µM (inactive)
COC(=O)CCC(NC(=S)N/N=C(\C)c1ccco1)C(=O)OC (centres undefined)	> 100 µM (inactive)	> 100 µM (inactive)	> 100 µM (inactive)	> 100 µM (inactive)	> 100 µM (inactive)	> 100 µM (inactive)	> 100 µM (inactive)	> 100		> 100 µM (inactive)	> 100 µM (inactive)		> 100 µM (inactive)		> 100 µM (inactive)	> 100 µM (inactive)
CC(c1ccccc1)C(O)S(=O)(=O)O (centres undefined)	> 100 µM (inactive)	> 100 µM (inactive)	> 100 µM (inactive)	> 100 µM (inactive)	98.9 µM (inactive)	> 100 µM (inactive)	> 100 µM (inactive)	> 100		> 100 µM (inactive)	88.3 µM (inactive)		> 100 µM (inactive)	> 100 µM (inactive)	> 100 µM (inactive)	> 100 µM (inactive)
NC1C[C@H](n2cc(/C=C/Br)c(=O)[nH]c2=O)C[C@@H]1CO (some centres undefined)	> 100 µM (inactive)		> 100 µM (inactive)	> 100 µM (inactive)	> 100 µM (inactive)	> 100 µM (inactive)		> 100		> 100 µM (inactive)	> 100 µM (inactive)			> 100 µM (inactive)	> 100 µM (inactive)	> 100 µM (inactive)
O=C1c2ccc(O)c(O)c2C(=O)c2c(O)ccc(O)c21 [QUINALIZARIN]	21.4 µM (inactive)	30.9 µM (inactive)	28.1 µM (inactive)	34.2 µM (inactive)	15.9 µM (inactive)	2.1 µM (inactive)		25.7	26.5 µM (inactive)	26.3 µM (inactive)	21.2 µM (inactive)	6.05 µM (inactive)	28.2 µM (inactive)	28.2 µM (inactive)	23 µM (inactive)	33.8 µM (inactive)
O[C@H]1[C@H]2[C@H](O)CCCN2C[C@H]1O [TRIDOLGOSIR]	> 100 µM (inactive)	> 100 µM (inactive)	> 100 µM (inactive)	> 100 µM (inactive)	> 100 µM (inactive)	> 100 µM (inactive)	> 100 µM (inactive)	> 100		> 100 µM (inactive)	> 100 µM (inactive)	> 100 µM (inactive)	> 100 µM (inactive)	> 100 µM (inactive)	> 100 µM (inactive)	> 100 µM (inactive)
